According to BindingDB's records for doi:10.1021/jm00046a008 (University of Alabama At Birmingham, 1994):

Target: Carnitine O-acetyltransferase (Columba livia)
Assay: Tested against pigeon breast carnitine acyltransferase

Compound | Ki
CC(=O)NC(CC(=O)[O-])C[N+](C)(C)C (configuration not stated) [(2-Acetylamino-3-carboxy-propyl)-trimethyl-ammonium] | 0.024 mM
CC(=O)NC(CC(=O)O)CC(C)(C)C (configuration not stated) [3-Acetylamino-5,5-dimethyl-hexanoic acid anion] | 25 mM
